Measurements as given in ChEMBL document CHEMBL4138123, “Design, synthesis and biological evaluation of novel pyrazolochalcones as potential modulators of PI3K/Akt/mTOR pathway and inducers of apoptosis in breast cancer cells” (Eur J Med Chem, 2017).

Legend:
Format in all cases: functional
SK-OV-3 = assay: Cytotoxicity against human SKOV3 cells assessed as cell growth at 0.01 uM after 48 hrs by sulforhodamine B assay relative to control; settings: SK-OV-3, 48 h, read-out: Activity
BT-549 = assay: Cytotoxicity against human BT549 cells assessed as growth inhibition after 48 hrs by sulforhodamine B assay; settings: BT-549, 48 h
SNB-19 [1] = assay: Cytotoxicity against human SNB19 cells assessed as cell growth at 10 uM after 48 hrs by sulforhodamine B assay relative to control; settings: SNB-19, 48 h, read-out: Activity
NCI-H522 [2] = assay: Cytotoxicity against human NCI-H522 cells assessed as cell growth at 1 uM after 48 hrs by sulforhodamine B assay relative to control; settings: NCI-H522, 48 h, read-out: Activity
OVCAR-4 = assay: Cytotoxicity against human OVCAR4 cells assessed as growth inhibition after 48 hrs by sulforhodamine B assay; settings: OVCAR-4, 48 h
RXF 393 [3] = assay: Cytotoxicity against human RXF393 cells assessed as cell growth at 100 uM after 48 hrs by sulforhodamine B assay relative to control; settings: RXF 393, 48 h, read-out: Activity
SNB-19 [4] = assay: Cytotoxicity against human SNB19 cells assessed as cell growth at 0.1 uM after 48 hrs by sulforhodamine B assay relative to control; settings: SNB-19, 48 h, read-out: Activity
HCT-116 [5] = assay: Cytotoxicity against human HCT116 cells assessed as cell growth at 10 uM after 48 hrs by sulforhodamine B assay relative to control; settings: HCT-116, 48 h, read-out: Activity
CCRF-CEM [6] = assay: Cytotoxicity against human CCRF-CEM cells assessed as growth inhibition after 48 hrs by sulforhodamine B assay
SK-MEL-5 = assay: Cytotoxicity against human SK-MEL-5 cells assessed as cell growth at 0.01 uM after 48 hrs by sulforhodamine B assay relative to control; settings: SK-MEL-5, 48 h, read-out: Activity
NCI-H226 = assay: Cytotoxicity against human NCI-H226 cells assessed as growth inhibition after 48 hrs by sulforhodamine B assay; settings: NCI-H226, 48 h
CCRF-CEM [7] = assay: Cytotoxicity against human CCRF-CEM cells assessed as cell growth at 0.01 uM after 48 hrs by sulforhodamine B assay relative to control; settings: read-out: Activity
SK-MEL-2 = assay: Cytotoxicity against human SK-MEL-2 cells assessed as growth inhibition after 48 hrs by sulforhodamine B assay; settings: SK-MEL-2, 48 h
OVCAR-3 = assay: Cytotoxicity against human OVCAR3 cells assessed as cell growth at 100 uM after 48 hrs by sulforhodamine B assay relative to control; settings: OVCAR-3, 48 h, read-out: Activity
RXF 393 [8] = assay: Cytotoxicity against human RXF393 cells assessed as cell growth at 0.1 uM after 48 hrs by sulforhodamine B assay relative to control; settings: RXF 393, 48 h, read-out: Activity
K562 = assay: Cytotoxicity against human K562 cells assessed as growth inhibition after 48 hrs by sulforhodamine B assay; settings: K562, 48 h
NCI-H522 [9] = assay: Cytotoxicity against human NCI-H522 cells assessed as cell growth at 10 uM after 48 hrs by sulforhodamine B assay relative to control; settings: NCI-H522, 48 h, read-out: Activity
UACC-62 [10] = assay: Cytotoxicity against human UACC62 cells assessed as cell growth at 10 uM after 48 hrs by sulforhodamine B assay relative to control; settings: UACC-62, 48 h, read-out: Activity
NCI-H322M [11] = assay: Cytotoxicity against human NCI-H322M cells assessed as cell growth at 10 uM after 48 hrs by sulforhodamine B assay relative to control; settings: read-out: Activity
CCRF-CEM [12] = assay: Cytotoxicity against human CCRF-CEM cells assessed as cell growth at 0.1 uM after 48 hrs by sulforhodamine B assay relative to control; settings: read-out: Activity
MDA-MB-231 = assay: Cytotoxicity against human MDA-MB-231 cells assessed as growth inhibition after 48 hrs by sulforhodamine B assay; settings: MDA-MB-231, 48 h
NCI-H322M [13] = assay: Cytotoxicity against human NCI-H322M cells assessed as cell growth at 100 uM after 48 hrs by sulforhodamine B assay relative to control; settings: read-out: Activity
HCT-15 = assay: Cytotoxicity against human HCT15 cells assessed as cell growth at 0.1 uM after 48 hrs by sulforhodamine B assay relative to control; settings: HCT-15, 48 h, read-out: Activity
ACHN [14] = assay: Cytotoxicity against human ACHN cells assessed as cell growth at 10 uM after 48 hrs by sulforhodamine B assay relative to control; settings: read-out: Activity
HOP-62 = assay: Cytotoxicity against human HOP62 cells assessed as cell growth at 100 uM after 48 hrs by sulforhodamine B assay relative to control; settings: HOP-62, 48 h, read-out: Activity
UACC-257 = assay: Cytotoxicity against human UACC257 cells assessed as cell growth at 0.1 uM after 48 hrs by sulforhodamine B assay relative to control; settings: UACC-257, 48 h, read-out: Activity
HCT-116 [15] = assay: Cytotoxicity against human HCT116 cells assessed as cell growth at 0.1 uM after 48 hrs by sulforhodamine B assay relative to control; settings: HCT-116, 48 h, read-out: Activity
IGROV-1 = assay: Cytotoxicity against human IGROV1 cells assessed as cell growth at 0.01 uM after 48 hrs by sulforhodamine B assay relative to control; settings: IGROV-1, 48 h, read-out: Activity
Malme-3M [16] = assay: Cytotoxicity against human MALME-3M cells assessed as cell growth at 10 uM after 48 hrs by sulforhodamine B assay relative to control; settings: read-out: Activity
SF-539 [17] = assay: Cytotoxicity against human SF539 cells assessed as cell growth at 10 uM after 48 hrs by sulforhodamine B assay relative to control; settings: SF-539, 48 h, read-out: Activity
Malme-3M [18] = assay: Cytotoxicity against human MALME-3M cells assessed as cell growth at 0.01 uM after 48 hrs by sulforhodamine B assay relative to control; settings: read-out: Activity
RXF 393 [19] = assay: Cytotoxicity against human RXF393 cells assessed as growth inhibition after 48 hrs by sulforhodamine B assay; settings: RXF 393, 48 h
UACC-62 [20] = assay: Cytotoxicity against human UACC62 cells assessed as growth inhibition after 48 hrs by sulforhodamine B assay; settings: UACC-62, 48 h
SF-539 [21] = assay: Cytotoxicity against human SF539 cells assessed as growth inhibition after 48 hrs by sulforhodamine B assay; settings: SF-539, 48 h
ACHN [22] = assay: Cytotoxicity against human ACHN cells assessed as cell growth at 1 uM after 48 hrs by sulforhodamine B assay relative to control; settings: read-out: Activity
TK-10 = assay: Cytotoxicity against human TK10 cells assessed as cell growth at 0.01 uM after 48 hrs by sulforhodamine B assay relative to control; settings: TK-10, 48 h, read-out: Activity

For `COc1ccc(-c2cc(/C=C/C(=O)c3ccc(N)cc3)[nH]n2)cc1OC`, the growth at 0.01 µM (SK-OV-3) was 88%, the GI50 (BT-549) was 1.5 µM and the LC50 (concentration killing 50% of cells) (BT-549) was 5.77 µM. For the same molecule, the TGI (BT-549) was 2.94 µM, the growth at 10 µM (SNB-19 [1]) was 31% and the growth at 1 µM (NCI-H522 [2]) was 87%. It also gave a GI50 (OVCAR-4) of 2.68 µM, an LC50 (OVCAR-4) of 40.5 µM and a TGI (OVCAR-4) of 15.8 µM. It also gave a growth at 100 µM (RXF 393 [3]) of -95%, a growth at 0.1 µM (SNB-19 [4]) of 90% and a growth at 10 µM (HCT-116 [5]) of -73%. The GI50 (CCRF-CEM [6]) was 1.74 µM, the LC50 (concentration killing 50% of cells) (CCRF-CEM [6]) was > 100 µM and the TGI (CCRF-CEM [6]) was 7.81 µM. It also gave a growth at 0.01 µM (SK-MEL-5) of 99%, a GI50 (NCI-H226) of 2.32 µM and an LC50 (concentration killing 50% of cells) (NCI-H226) of 76.2 µM. The TGI (NCI-H226) was 7.38 µM, the growth at 0.01 µM (CCRF-CEM [7]) was 97% and the GI50 (SK-MEL-2) was 8.44 µM. For the same molecule, the LC50 (concentration killing 50% of cells) (SK-MEL-2) was 53.2 µM, the TGI (SK-MEL-2) was 22.2 µM and the growth at 100 µM (OVCAR-3) was -99%. The growth at 0.1 µM (RXF 393 [8]) was 92%, the GI50 (K562) was 2.03 µM and the LC50 (concentration killing 50% of cells) (K562) was > 100 µM. For the same molecule, the TGI (K562) was 36.4 µM, the growth at 10 µM (NCI-H522 [9]) was -84% and the growth at 10 µM (UACC-62 [10]) was 3%. The growth at 10 µM (NCI-H322M [11]) was 24%, the growth at 0.1 µM (CCRF-CEM [12]) was 97% and the GI50 (MDA-MB-231) was 4.42 µM. It also gave an LC50 (MDA-MB-231) of 53.9 µM, a TGI (MDA-MB-231) of 17.2 µM and a growth at 100 µM (NCI-H322M [13]) of -88%. For the same molecule, the growth at 0.1 µM (HCT-15) was 95%, the growth at 10 µM (ACHN [14]) was -82% and the growth at 100 µM (HOP-62) was -98%. It also gave a growth at 0.1 µM (UACC-257) of 90%, a growth at 0.1 µM (HCT-116 [15]) of 101% and a growth at 0.01 µM (IGROV-1) of 106%. The growth at 10 µM (Malme-3M [16]) was 37%, the growth at 10 µM (SF-539 [17]) was -73% and the growth at 0.01 µM (Malme-3M [18]) was 104%. For the same molecule, the GI50 (RXF 393 [19]) was 2.15 µM, the LC50 (concentration killing 50% of cells) (RXF 393 [19]) was 15.9 µM and the TGI (RXF 393 [19]) was 5.12 µM. The GI50 (UACC-62 [20]) was 3.11 µM, the LC50 (UACC-62 [20]) was 39.6 µM and the TGI (UACC-62 [20]) was 10.9 µM. It also gave a GI50 (SF-539 [21]) of 1.73 µM, an LC50 (concentration killing 50% of cells) (SF-539 [21]) of 7.19 µM and a TGI (SF-539 [21]) of 3.53 µM. For the same molecule, the growth at 1 µM (ACHN [22]) was 88% and the growth at 0.01 µM (TK-10) was 102%.
With `COc1cc(-c2cc(/C=C/C(=O)c3ccc4c(c3)OCO4)[nH]n2)cc(OC)c1OC` the growth at 0.01 µM (SK-OV-3) was 103%, the LC50 (concentration killing 50% of cells) (BT-549) was > 100 µM and the growth at 10 µM (SNB-19 [1]) was 30%. For the same molecule, the growth at 1 µM (NCI-H522 [2]) was 52%, the LC50 (OVCAR-4) was > 100 µM and the TGI (OVCAR-4) was > 100 µM. The growth at 100 µM (RXF 393 [3]) was -89%, the growth at 0.1 µM (SNB-19 [4]) was 88% and the growth at 10 µM (HCT-116 [5]) was -60%. For the same molecule, the LC50 (concentration killing 50% of cells) (CCRF-CEM [6]) was > 100 µM, the TGI (CCRF-CEM [6]) was 5.95 µM and the growth at 0.01 µM (SK-MEL-5) was 98%. The LC50 (concentration killing 50% of cells) (NCI-H226) was > 100 µM, the TGI (NCI-H226) was > 100 µM and the growth at 0.01 µM (CCRF-CEM [7]) was 94%. For the same molecule, the LC50 (concentration killing 50% of cells) (SK-MEL-2) was 81.3 µM, the TGI (SK-MEL-2) was 28.9 µM and the growth at 100 µM (OVCAR-3) was -38%. The growth at 0.1 µM (RXF 393 [8]) was 89%, the LC50 (concentration killing 50% of cells) (K562) was > 100 µM and the TGI (K562) was 9.81 µM. The growth at 10 µM (NCI-H522 [9]) was -88%, the growth at 10 µM (UACC-62 [10]) was 26% and the growth at 10 µM (NCI-H322M [11]) was 3%. The growth at 0.1 µM (CCRF-CEM [12]) was 90%, the LC50 (MDA-MB-231) was > 100 µM and the TGI (MDA-MB-231) was > 100 µM. The growth at 100 µM (NCI-H322M [13]) was -9%, the growth at 0.1 µM (HCT-15) was 92% and the growth at 10 µM (ACHN [14]) was -73%. It also gave a growth at 100 µM (HOP-62) of -70%, a growth at 0.1 µM (UACC-257) of 91% and a growth at 0.1 µM (HCT-116 [15]) of 101%. It also gave a growth at 0.01 µM (IGROV-1) of 98%, a growth at 10 µM (Malme-3M [16]) of 26% and a growth at 10 µM (SF-539 [17]) of -27%. The growth at 0.01 µM (Malme-3M [18]) was 93%, the LC50 (concentration killing 50% of cells) (RXF 393 [19]) was 5.55 µM and the TGI (RXF 393 [19]) was 2.87 µM. The LC50 (UACC-62 [20]) was > 100 µM, the TGI (UACC-62 [20]) was > 100 µM and the LC50 (concentration killing 50% of cells) (SF-539 [21]) was 25.4 µM. It also gave a TGI (SF-539 [21]) of 5.73 µM, a growth at 1 µM (ACHN [22]) of 96% and a growth at 0.01 µM (TK-10) of 89%.
